Series [1] is described as follows: Intrinsic clearance in human liver microsomes. The conditions noted are these: read-out: CLH. The class given is ADME, Microsome. For orientation: Liver microsomes are vesicles of endoplasmic reticulum, rich in cytochrome P450 enzymes.
A short description of another series: physchem. The conditions noted are these: pH 7.4.

Each structure is given as a SMILES string.

In general, logD refers to the decadic logarithm of the distribution of all forms, ionised or not, between an organic phase and buffer at a given pH.

For the molecule `CC(C)(C)OC(=O)N1CCN(c2ncc(-c3ccc(OCC#N)cc3)cn2)CC1`, in series [1], the microsomal CLint came out at 259 µL/min/mg. This molecule returned a logD in the series “physchem” (octanol/phosphate buffer) of 4.2.
On the same counts, the results for `CC(C)(C)OC(=O)N1CCN(c2ncc(OCc3ccc(S(C)(=O)=O)cc3)cn2)CC1` are 47 µL/min/mg and 3.2.
Turning to `CC(C)(C)OC(=O)N1CCN(c2ccc(OCc3ccc(S(C)(=O)=O)cc3)nn2)CC1`, in the series “physchem” (octanol/phosphate buffer), the log distribution coefficient (logD) was found to be 2.8.
In the series “physchem” (octanol/water), `CC(C)(C)OC(=O)N1CCN(c2cnc(OCc3ccc(S(C)(=O)=O)cc3)cn2)CC1` had a logD of 3.4.
As for `CC(C)(C)OC(=O)N1CCN(c2ccc(OCc3ccc(S(C)(=O)=O)cc3)cn2)CC1`, in “physchem” (octanol/phosphate buffer), the logD is 3.2.
`CC(C)(C)OC(=O)N1CCN(c2ccc(OCc3ccc(S(C)(=O)=O)cc3)cc2)CC1` came in with a logD in “physchem” (octanol/water) of 3.9.
The molecule `CC(C)(C)OC(=O)N1CCN(c2ncc(OCc3ccc(S(C)(=O)=O)cc3)nn2)CC1` had a pH-dependent lipophilicity (logD) in “physchem” (octanol/phosphate buffer) of 2.9.
Turning to `CC(C)(C)OC(=O)N1CCC(c2ncc(OCc3ccc(S(C)(=O)=O)cc3)cn2)CC1`, the pH-dependent lipophilicity (logD) in the series “physchem” (octanol/water) was determined as 2.8.
In “physchem” (octanol/phosphate buffer), `C[C@H]1CN(C(=O)OC(C)(C)C)CCN1c1ncc(OCc2ccc(S(C)(=O)=O)cc2)cn1` had a logD of 3.5.
Same read-out and setting: under `C[C@@H]1CN(C(=O)OC(C)(C)C)CCN1c1ncc(OCc2ccc(S(C)(=O)=O)cc2)cn1` stands 3.5; under `C[C@@H]1CN(c2ncc(OCc3ccc(S(C)(=O)=O)cc3)cn2)CCN1C(=O)OC(C)(C)C`, more than 3.7.
`C[C@H]1CN(c2ncc(OCc3ccc(S(C)(=O)=O)cc3)cn2)CCN1C(=O)OC(C)(C)C`: the logD in “physchem” (octanol/phosphate buffer) is more than 3.6.
On to `C[C@@H]1CN(C(=O)OC(C)(C)C)C[C@H](C)N1c1ncc(OCc2ccc(S(C)(=O)=O)cc2)cn1`, for which the logD in the series “physchem” (octanol/phosphate buffer) is more than 3.6.
Same read-out and setting: under `C[C@@H]1CN(c2ncc(OCc3ccc(S(C)(=O)=O)cc3)cn2)[C@@H](C)CN1C(=O)OC(C)(C)C` stands more than 3.7; under `CC(C)(C)OC(=O)N1C[C@@H]2C[C@H]1CN2c1ncc(OCc2ccc(S(C)(=O)=O)cc2)cn1`, 2.8.
Still for that read-out and setting: then `CC(C)(C)OC(=O)N1C[C@@H]2CC[C@H]1CN2c1ncc(OCc2ccc(S(C)(=O)=O)cc2)cn1`, with 3.4.
On the same count and under the same terms, under `C[C@@H]1CN(C(=O)OC(C)(C)C)CCN1c1ncc(OCC2CCN(S(C)(=O)=O)CC2)cn1` stands 3.5; under `C[C@@H]1CN(C(=O)OC(C)(C)C)CCN1c1ncc(OCc2ccc(S(=O)(=O)N(C)C)cc2)cn1`, more than 4.3; under `C[C@@H]1CN(C(=O)OC(C)(C)C)CCN1c1ncc(OCc2ccc(C#N)cc2)cn1`, more than 3.6.

For the origin of these results see ChEMBL document CHEMBL2086249, “Use of small-molecule crystal structures to address solubility in a novel series of G protein coupled receptor 119 agonists: optimization of a lead and in vivo evaluation” (J Med Chem, 2012).
